Source: ChEMBL document CHEMBL1145534 (2007)
≈ marks a conversion by molar mass, not a printed value.

Legend:
Type in all cases: functional
Enterococcus raffinosus [1] = test: Antimicrobial activity against Enterococcus raffinosus at 0.25 ug/ml by broth microdilution method
[2] = system: Corynebacterium amycolatum; test: Antimicrobial activity against Corynebacterium amycolatum at 0.25 ug/ml by broth microdilution method
Enterococcus avium [3] = test: Antimicrobial activity against Enterococcus avium at 2 ug/ml by broth microdilution method
Streptococcus anginosus [4] = test: Antimicrobial activity against viridans group Streptococcus anginosus at 0.5 ug/ml by broth microdilution method
Streptococcus anginosus [5] = test: Antimicrobial activity against viridans group Streptococcus anginosus at 0.25 ug/ml by broth microdilution method
Bacillus cereus [6] = test: Antimicrobial activity against Bacillus cereus at 0.5 ug/ml by broth microdilution method
Aerococcus = test: Antimicrobial activity against Aerococcus spp. at <= 0.06 ug/ml by broth microdilution method
[7] = system: Corynebacterium pseudodiphtheriticum; test: Antimicrobial activity against Corynebacterium pseudodiphtheriticum at <= 0.06 ug/ml by broth microdilution method
Rothia mucilaginosa [8] = test: Antimicrobial activity against Rothia mucilaginosa by broth microdilution method
Micrococcus luteus [9] = test: Antimicrobial activity against Micrococcus luteus at <= 0.06 ug/ml by broth microdilution method
Enterococcus gallinarum [10] = test: Antimicrobial activity against Enterococcus gallinarum at 0.25 ug/ml by broth microdilution method
Streptococcus sanguinis [11] = test: Antimicrobial activity against viridans group Streptococcus sanguinis at 2 ug/ml by broth microdilution method
Streptococcus sanguinis [12] = test: Antimicrobial activity against viridans group Streptococcus sanguinis at 0.25 ug/ml by broth microdilution method
Enterococcus durans [13] = test: Antimicrobial activity against Enterococcus durans at 1 ug/ml by broth microdilution method
Streptococcus gordonii = test: Antimicrobial activity against viridans group Streptococcus gordonii at 0.25 ug/ml by broth microdilution method
[14] = system: Enterococcus casseliflavus; test: Antimicrobial activity against Enterococcus casseliflavus at 1 ug/ml by broth microdilution method
Streptococcus anginosus [15] = test: Antimicrobial activity against viridans group Streptococcus anginosus at 2 ug/ml by broth microdilution method
[16] = system: Enterococcus casseliflavus; test: Antimicrobial activity against Enterococcus casseliflavus at 0.25 ug/ml by broth microdilution method
Streptococcus mutans = test: Antimicrobial activity against viridans group Streptococcus mutans at 1 ug/ml by broth microdilution method
Streptococcus mitis [17] = test: Antimicrobial activity against viridans group Streptococcus mitis at 2 ug/ml by broth microdilution method
Listeria monocytogenes [18] = test: Antimicrobial activity against Listeria monocytogenes by broth microdilution method
Bacillus cereus [19] = test: Antimicrobial activity against Bacillus cereus at 1 ug/ml by broth microdilution method
Enterococcus durans [20] = test: Antimicrobial activity against Enterococcus durans by broth microdilution method
Corynebacterium jeikeium [21] = test: Antimicrobial activity against Corynebacterium jeikeium at 0.12 ug/ml by broth microdilution method
[22] = system: Corynebacterium pseudodiphtheriticum; test: Antimicrobial activity against Corynebacterium pseudodiphtheriticum at 0.12 ug/ml by broth microdilution method
Bacillus sp. [23] = test: Antimicrobial activity against Bacillus spp. at 2 ug/ml by broth microdilution method; conditions: Bacillus sp. (in: firmicutes)
Streptococcus equinus [24] = test: Antimicrobial activity against viridans group Streptococcus bovis by broth microdilution method
Streptococcus mitis [25] = test: Antimicrobial activity against viridans group Streptococcus mitis at 0.5 ug/ml by broth microdilution method
Listeria monocytogenes [26] = test: Antimicrobial activity against Listeria monocytogenes at <= 0.06 ug/ml by broth microdilution method
Micrococcus luteus [27] = test: Antimicrobial activity against Micrococcus luteus at 0.5 ug/ml by broth microdilution method
Enterococcus avium [28] = test: Antimicrobial activity against Enterococcus avium at 0.25 ug/ml by broth microdilution method
Streptococcus = test: Antimicrobial activity against beta hemolytic Streptococcus group C at <= 0.06 ug/ml by broth microdilution method
Streptococcus oralis [29] = test: Antimicrobial activity against viridans group Streptococcus oralis at 1 ug/ml by broth microdilution method
Corynebacterium jeikeium [30] = test: Antimicrobial activity against Corynebacterium jeikeium at <= 0.06 ug/ml by broth microdilution method
[31] = system: Corynebacterium pseudodiphtheriticum; test: Antimicrobial activity against Corynebacterium pseudodiphtheriticum by broth microdilution method
[32] = system: Streptococcus intermedius; test: Antimicrobial activity against viridans group Streptococcus intermedius at 2 ug/ml by broth microdilution method
[33] = system: Streptococcus intermedius; test: Antimicrobial activity against viridans group Streptococcus intermedius by broth microdilution method
[34] = system: Streptococcus intermedius; test: Antimicrobial activity against viridans group Streptococcus intermedius at 0.5 ug/ml by broth microdilution method
Streptococcus equinus [35] = test: Antimicrobial activity against viridans group Streptococcus bovis at <= 0.06 ug/ml by broth microdilution method
Bacillus sp. [36] = test: Antimicrobial activity against Bacillus spp. at 0.12 ug/ml by broth microdilution method; conditions: Bacillus sp. (in: firmicutes)
Enterococcus gallinarum [37] = test: Antimicrobial activity against Enterococcus gallinarum at 2 ug/ml by broth microdilution method
[38] = system: Enterococcus casseliflavus; test: Antimicrobial activity against Enterococcus casseliflavus at 2 ug/ml by broth microdilution method
Streptococcus oralis [39] = test: Antimicrobial activity against viridans group Streptococcus oralis with G2576T rRNA mutation at 4 ug/ml by broth microdilution method
Corynebacterium sp. = test: Antimicrobial activity against Corynebacterium spp. at 0.5 ug/ml by broth microdilution method
Rothia mucilaginosa [40] = test: Antimicrobial activity against Rothia mucilaginosa at 0.25 ug/ml by broth microdilution method
Enterococcus raffinosus [41] = test: Antimicrobial activity against Enterococcus raffinosus at 0.12 ug/ml by broth microdilution method
Micrococcus luteus [42] = test: Antimicrobial activity against Micrococcus luteus by broth microdilution method
[43] = system: Streptococcus constellatus; test: Antimicrobial activity against viridans group Streptococcus constellatus at 0.5 ug/ml by broth microdilution method
Streptococcus oralis [44] = test: Antimicrobial activity against viridans group Streptococcus oralis at 2 ug/ml by broth microdilution method
Enterococcus avium [45] = test: Antimicrobial activity against Enterococcus avium at 0.12 ug/ml by broth microdilution method
[46] = system: Corynebacterium pseudodiphtheriticum; test: Antimicrobial activity against Corynebacterium pseudodiphtheriticum at 0.25 ug/ml by broth microdilution method
[47] = system: Enterococcus casseliflavus; test: Antimicrobial activity against Enterococcus casseliflavus at <= 0.06 ug/ml by broth microdilution method
Streptococcus mitis [48] = test: Antimicrobial activity against viridans group Streptococcus mitis at <= 0.06 ug/ml by broth microdilution method
[49] = system: Enterococcus casseliflavus; test: Antimicrobial activity against Enterococcus casseliflavus at 0.5 ug/ml by broth microdilution method
Streptococcus sanguinis [50] = test: Antimicrobial activity against viridans group Streptococcus sanguinis at 1 ug/ml by broth microdilution method
[51] = system: Enterococcus casseliflavus; test: Antimicrobial activity against Enterococcus casseliflavus by broth microdilution method

Compound: CC(=O)NC[C@H]1CN(c2ccc(N3CCOCC3)c(F)c2)C(=O)O1 [LINEZOLID]
- inhibition at 0.25 µg/mL (Enterococcus raffinosus [1]): 0%
- inhibition at 0.25 µg/mL [2]: 100%
- inhibition at 2 µg/mL (Enterococcus avium [3]): 99.1%
- inhibition at 0.5 µg/mL (Streptococcus anginosus [4]): 33.7%
- inhibition at 0.25 µg/mL (Streptococcus anginosus [5]): 7.7%
- inhibition at 0.5 µg/mL (Bacillus cereus [6]): 30%
- Inhibition (Aerococcus): 0%
- Inhibition [7]: 0%
- MIC50 (Rothia mucilaginosa [8]): 0.5 µg/mL (≈ 1.48 µM)
- MIC90 (Rothia mucilaginosa [8]): 1 µg/mL (≈ 2.96 µM)
- Inhibition (Micrococcus luteus [9]): 0%
- inhibition at 0.25 µg/mL (Enterococcus gallinarum [10]): 0%
- inhibition at 2 µg/mL (Streptococcus sanguinis [11]): 100%
- inhibition at 0.25 µg/mL (Streptococcus sanguinis [12]): 4.2%
- inhibition at 1 µg/mL (Enterococcus durans [13]): 32.7%
- inhibition at 0.25 µg/mL (Streptococcus gordonii): 0%
- inhibition at 1 µg/mL [14]: 23.1%
- inhibition at 2 µg/mL (Streptococcus anginosus [15]): 100%
- inhibition at 0.25 µg/mL [16]: 0%
- inhibition at 1 µg/mL (Streptococcus mutans): 89.5%
- inhibition at 2 µg/mL (Streptococcus mitis [17]): 100%
- MIC50 (Listeria monocytogenes [18]): 2 µg/mL (≈ 5.93 µM)
- MIC90 (Listeria monocytogenes [18]): 2 µg/mL (≈ 5.93 µM)
- inhibition at 1 µg/mL (Bacillus cereus [19]): 98.3%
- MIC50 (Enterococcus durans [20]): 2 µg/mL (≈ 5.93 µM)
- MIC90 (Enterococcus durans [20]): 2 µg/mL (≈ 5.93 µM)
- inhibition at 0.12 µg/mL (Corynebacterium jeikeium [21]): 5.1%
- inhibition at 0.12 µg/mL [22]: 0%
- inhibition at 2 µg/mL (Bacillus sp. [23]): 100%
- MIC50 (Streptococcus equinus [24]): 1 µg/mL (≈ 2.96 µM)
- MIC90 (Streptococcus equinus [24]): 2 µg/mL (≈ 5.93 µM)
- inhibition at 0.5 µg/mL (Streptococcus mitis [25]): 33.4%
- Inhibition (Listeria monocytogenes [26]): 0%
- inhibition at 0.5 µg/mL (Micrococcus luteus [27]): 75.9%
- inhibition at 0.25 µg/mL (Enterococcus avium [28]): 0%
- Inhibition (Streptococcus): 1.5%
- inhibition at 1 µg/mL (Streptococcus oralis [29]): 96.4%
- Inhibition (Corynebacterium jeikeium [30]): 1.7%
- MIC50 [31]: 0.5 µg/mL (≈ 1.48 µM)
- MIC90 [31]: 0.5 µg/mL (≈ 1.48 µM)
- inhibition at 2 µg/mL [32]: 100%
- MIC50 [33]: 1 µg/mL (≈ 2.96 µM)
- MIC90 [33]: 2 µg/mL (≈ 5.93 µM)
- inhibition at 0.5 µg/mL [34]: 24.2%
- Inhibition (Streptococcus equinus [35]): 0%
- inhibition at 0.12 µg/mL (Bacillus sp. [36]): 0.7%
- inhibition at 2 µg/mL (Enterococcus gallinarum [37]): 99.2%
- inhibition at 2 µg/mL [38]: 96.9%
- inhibition at 4 µg/mL (Streptococcus oralis [39]): 99.3%
- inhibition at 0.5 µg/mL (Corynebacterium sp.): 92.4%
- inhibition at 0.25 µg/mL (Rothia mucilaginosa [40]): 16.7%
- inhibition at 0.12 µg/mL (Enterococcus raffinosus [41]): 0%
- MIC50 (Micrococcus luteus [42]): 0.5 µg/mL (≈ 1.48 µM)
- MIC90 (Micrococcus luteus [42]): 1 µg/mL (≈ 2.96 µM)
- inhibition at 0.5 µg/mL [43]: 42.7%
- inhibition at 2 µg/mL (Streptococcus oralis [44]): 99.3%
- inhibition at 0.12 µg/mL (Enterococcus avium [45]): 0%
- inhibition at 0.25 µg/mL [46]: 36.4%
- Inhibition [47]: 0%
- Inhibition (Streptococcus mitis [48]): 0.3%
- inhibition at 0.5 µg/mL [49]: 0%
- inhibition at 1 µg/mL (Streptococcus sanguinis [50]): 97.9%
- MIC50 [51]: 2 µg/mL (≈ 5.93 µM)
- MIC90 [51]: 2 µg/mL (≈ 5.93 µM)
